pIC50: −log10 of the molar value.
Target: T1, Pannexin-1 (rPanx1) (Rattus norvegicus, UniProt P60570)
T1 construct: gene Panx1; Rattus norvegicus Pannexin-1 cDNA in pRK5 (pRK5-rPanx1)
Assay: whole-cell patch clamp of HEK-293T cells transfected with rat Panx1
Assay type: cell-based

T1 sequence (P60570 whole entry): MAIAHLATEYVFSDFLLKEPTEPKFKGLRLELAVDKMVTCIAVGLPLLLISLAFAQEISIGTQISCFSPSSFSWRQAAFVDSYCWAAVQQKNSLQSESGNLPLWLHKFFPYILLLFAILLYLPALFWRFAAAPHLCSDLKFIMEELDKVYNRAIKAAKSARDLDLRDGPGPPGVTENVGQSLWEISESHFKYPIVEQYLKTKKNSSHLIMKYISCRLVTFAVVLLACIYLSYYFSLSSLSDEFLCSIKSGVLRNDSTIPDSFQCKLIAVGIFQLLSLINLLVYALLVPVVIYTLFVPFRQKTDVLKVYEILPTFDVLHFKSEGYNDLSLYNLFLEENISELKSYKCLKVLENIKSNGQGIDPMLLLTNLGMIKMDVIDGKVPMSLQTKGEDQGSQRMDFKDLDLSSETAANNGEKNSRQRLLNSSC

| pIC50 | Compound |
| --- | --- |
| 7.27 | CCCN(CCC)S(=O)(=O)c1ccc(C(O)(C(F)(F)F)C(F)(F)F)cc1 [EG-2184, 4-(1,1,1,3,3,3-hexafluoro-2-hydroxypropan-2-yl)-N,N-dipropylbenzenesulfonamide] |
| 4.13 | CCCN(CCC)S(=O)(=O)c1ccc(C(=O)O)cc1 [probenecid] |

— publication PMC11269731, “Pannexin-1 channel inhibition alleviates opioid withdrawal in rodents by modulating locus coeruleus to spinal cord circuitry” (Nature Communications, 2024)
